The text below walks through data of patent US20130302442A1, “METHODS OF USING (4S,4AS,5AR,12AS)-4-DIMETHYLAMINO-3,10,12,12A-TETRAHYDROXY-7-[(METHOXY(METHYL)AMINO)-METHYL]-1,11-DIOXO-1,4,4A,5,5A,6,11,12A-OCTAHYDRO-NAPHTHACENE-2-CARBOXYLIC ACID AMIDE” (priority 2012, published 2013).

The structures appear in SMILES notation. Converted amounts (≈) assume the structure as drawn. Read-outs that look alike come from different tables or passages of the source.

Format in all cases: cell-based
Test [1] concerns E. cloacae. Description: In vitro MIC testing, antibacterial spectrum of activity. The following applies: Enterobacter cloacae; E. cloacae (30 isolates).
The test system of test [2] is K. pneumoniae. The description is as above. The note with it: K. pneumoniae (31 isolates).
Test [3] relates to Salmonella Spp. The test is described as above. The following applies: Salmonella.
Test [4] deals with P. aeruginosa. Described as above. The note with it: P. aeruginosa (11 isolates).
Test [5] deals with P. mirabilis. Described as above. The following applies: Proteus mirabilis; P. mirabilis (30 isolates).
Test [6] concerns E. faecalis. The test is described as above. The following applies: E. faecalis [VSE] (31 isolates).
In test [7] the test system is E. faecium. The test is described as above. The note with it: Enterococcus faecium; for MIC50: read-out: MIC50; for MIC90: read-out: MIC90.
The subject of test [8] is E. coli. The test is described as above. The following applies: Escherichia coli.
The test system of test [9] is Chlamydia trachomatis. As to the kind of experiment: Susceptibility testing (MIC, MBC) of 10 isolates of C. trachomatis in HEp-2 cells.
The test system of test [10] is Chlamydia pneumoniae. As to the kind of experiment: Susceptibility testing (MIC, MBC) of 10 isolates of C. pneumoniae in HEp-2 cells.
The test system of test [11] is Chlamydia trachomatis. Description: In vitro susceptibility testing of Chlamydia trachomatis in HEp-2 cells (first study). The note with it: Chlamydia trachomatis, C. trachomatis strains, read-out: MIC at which 90% of the strains were inhibited (MIC90).

The term MIC50 denotes the lowest concentration that inhibits either 50% of growth or 50% of the strains tested, depending on the study. As usually defined, the MIC90 is the lowest concentration that inhibits either 90% of growth or 90% of the strains tested, depending on the study. In the case of `CC1(C)S[C@@H]2[C@H](NC(=O)[C@H](N)c3ccccc3)C(=O)N2[C@H]1C(=O)O` [Ampicillin], the MIC50 in [1] is 64 µg/mL (≈ 183 µM); in test [2] (Klebsiella pneumoniae), greater than 64 µg/mL; in test [3], 1 µg/mL (≈ 2.86 µM); in test [4] (Pseudomonas aeruginosa) it was greater than 64 µg/mL; in test [5], 4 µg/mL (≈ 11.4 µM); in test [6] (Enterococcus faecalis, read-out: MIC50) it was 1 µg/mL (≈ 2.86 µM). For the same compound, the MIC50 in test [7] (E. faecium [VRE] (30 isolates)) is greater than 64 µg/mL; in test [7] (E. faecium [VSE] (32 isolates)), 64 µg/mL (≈ 183 µM); in test [8] it was greater than 64 µg/mL. Moreover, the MIC90 in test [1] is greater than 64 µg/mL; in test [2] (Klebsiella pneumoniae) it was greater than 64 µg/mL; in [3] it was greater than 64 µg/mL; in test [4] (Pseudomonas aeruginosa) it was greater than 64 µg/mL; in test [5] it was greater than 64 µg/mL; in [6] (Enterococcus faecalis, read-out: MIC90), 1 µg/mL (≈ 2.86 µM). Moreover, the MIC90 in [7] (E. faecium [VRE] (30 isolates)), in [7] (E. faecium [VSE] (32 isolates)) and in test [8] was greater than 64 µg/mL throughout. Besides, the “MIC Range” value is greater than 64 µg/mL in test [2], greater than 64 µg/mL in [4] and 0.5 to 8 µg/mL in test [6].

For orientation: MBC means the smallest concentration meeting the test's criterion for killing. Take `CC[C@H]1OC(=O)[C@H](C)[C@@H](O[C@H]2C[C@@](C)(OC)[C@@H](O)[C@H](C)O2)[C@H](C)[C@@H](O[C@@H]2O[C@H](C)C[C@H](N(C)C)[C@H]2O)[C@](C)(O)C[C@@H](C)CN(C)[C@H](C)[C@@H](O)[C@]1(C)O` [Azithromycin]: the entries for the “MIC Range” value in [9] (72 h) and in test [10] (72 h) were 0.003 to 0.03 µg/mL and 0.03 to 0.0625 µg/mL, respectively. In addition, the MIC50 in test [9] (Chlamydia trachomatis, 72 h) came out at 0.0075 µg/mL (≈ 0.01 µM); in test [10] (Chlamydia pneumoniae, 72 h) it was 0.0625 µg/mL (≈ 0.0834 µM). For the same compound, the MIC90 in [9] (Chlamydia trachomatis, 72 h) came out at 0.015 µg/mL (≈ 0.02 µM); in test [10] (Chlamydia pneumoniae, 72 h) it was 0.0625 µg/mL (≈ 0.0834 µM); in [11], 0.015 µg/mL (≈ 0.02 µM). Besides, the MBC in [9] (Chlamydia trachomatis, after passage, read-out: MBC 90%) amounted to 0.015 µg/mL (≈ 0.02 µM); in test [10] (Chlamydia pneumoniae, after passage, read-out: MBC 90%), 0.25 µg/mL (≈ 0.334 µM). Moreover, the “MBC Range” value in [9] (after passage) lay in the range of 0.007 to 0.03 µg/mL; in test [10] (after passage), 0.0625 to 0.25 µg/mL. In addition, the “MBC 90%” value in test [10] (after passage) came out at 0.25 µg/mL (≈ 0.334 µM).
